Assay results from patent US20060094722A1 (Eisai Co., Ltd., priority 2002, published 2006).
Structures can show the parent of a compound that is named as a salt. Where two headings read alike, the source gives them in different places.

Target: T1, DPPIV obtained from swine kidney (Sus scrofa, UniProt P22411)
T1 construct: DPPIV obtained from swine kidney; from tissue; host or cells: swine kidney
Experiment: Assay for the DPPIV-inhibiting activity
Format: biochemical
Conditions: DPPIV 10 mU/mL, Gly-Pro-p-nitroanilide 0.33 mM, absorbance 405 nm
Protocol: DPPIV obtained from swine kidney was dissolved in a reaction buffer (50 mM Tris-HCl (pH 7.4)/0.1% BSA) at a fmal concentration of 10 mU/mL. A 110 μL aliquot of this enzyme solution was added to the reaction system, and then 15 μL of an agent was added. The reaction solution was incubated at room temperature for 20 minutes. 25 μL of a solution containing 2 mM Gly-Pro-p-nitroanilide was added to the reaction solution (at the final concentration of 0.33 mM) to start the enzyme reaction. The reaction time was 20 minutes. 25 μL of 1N phosphate solution was added to stop the reaction. […] The degree of inhibition to the enzyme reaction was determined, and IC50 was computed based on the absorbance.

T1 sequence (P22411 whole entry): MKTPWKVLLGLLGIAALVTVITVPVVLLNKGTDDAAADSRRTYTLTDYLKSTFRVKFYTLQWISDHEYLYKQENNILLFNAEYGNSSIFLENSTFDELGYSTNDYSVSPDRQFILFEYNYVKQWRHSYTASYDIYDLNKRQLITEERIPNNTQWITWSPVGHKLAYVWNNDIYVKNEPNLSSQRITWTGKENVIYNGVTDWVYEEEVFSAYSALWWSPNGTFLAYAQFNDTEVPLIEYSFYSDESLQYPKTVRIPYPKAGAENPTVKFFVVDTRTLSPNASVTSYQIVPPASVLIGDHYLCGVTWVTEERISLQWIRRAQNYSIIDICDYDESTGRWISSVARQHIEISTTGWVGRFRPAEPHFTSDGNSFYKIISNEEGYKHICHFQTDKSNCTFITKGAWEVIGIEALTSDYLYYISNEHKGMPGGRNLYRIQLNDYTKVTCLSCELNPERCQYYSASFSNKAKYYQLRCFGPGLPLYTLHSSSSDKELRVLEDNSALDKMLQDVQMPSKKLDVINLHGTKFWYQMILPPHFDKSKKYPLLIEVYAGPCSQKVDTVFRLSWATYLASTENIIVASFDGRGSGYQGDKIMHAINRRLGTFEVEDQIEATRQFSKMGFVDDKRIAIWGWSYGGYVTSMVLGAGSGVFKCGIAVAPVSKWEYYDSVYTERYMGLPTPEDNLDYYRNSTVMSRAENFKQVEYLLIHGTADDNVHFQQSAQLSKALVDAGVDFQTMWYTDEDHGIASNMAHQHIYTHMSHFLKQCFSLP

| Compound | IC50 (read-out: IC50) [nM] | IC50 (IC50 (nM)) [nM] |
| --- | --- | --- |
| CC#CCn1c(N2CCNCC2)nc2nc(SCC(=O)O)n(C)c(=O)c21 [Example 79, [7-(2-Butynyl)-1-methyl-6-oxo-8-(piperazin-1-yl)-6,7-dihydro-1H-purin-2-ylsulfanyl]acetic acid trifluoroacetate] | 35.7 |  |
| CC#CCn1c(N2CCNCC2)nc2cnn(C)c(=O)c21 [Example 115, 3-(2-Butynyl)-5-methyl-2-(piperazin-1-yl)-3,5-dihydroimidazo[4,5-d]pyridazin-4-one trifluoroacetate] | 185 |  |
| CC#CCn1c(N2CCNCC2)nc2nc(SCCC)n(C)c(=O)c21 [Example 129, 7-(2-Butynyl)-1-methyl-8-(piperazin-1-yl)-2-propylsulfanyl-1,7-dihydropurin-6-one trifluoroacetate] | 115 |  |
| CC#CCn1c(N2CCNCC2)nc2nc(Oc3ccccc3C(N)=O)n(Cc3ccc(C#N)cc3)c(=O)c21 [Example 235, 2-[7-(2-Butynyl)-1-(4-cyanobenzyl-6-oxo-8-(piperazin-1-yl)-6,7-dihydro-1H-purin-2-yloxy]benzamide trifluoroacetate] | 1.44 |  |
| O=c1c2c(cnn1CCc1ccccc1)nc(N1CCNCC1)n2Cc1ccccc1 [Example 311, 3-Benzyl-5-(2-phenylethyl)-2-(piperazin-1-yl)-3,5-dihydroimidazo[4,5-d]pyridazin-4-one trifluoroacetate] |  | 77.5 |
| CC#CCn1c(N2CCNCC2)nc2ccn(CC(=O)c3ccccc3)c(=O)c21 [Example 341, 3-(2-Butynyl)-5-(2-oxo-2-phenylethyl)-2-(piperazin-1-yl)-3,5-dihydroimidazo[4,5-c]pyridin-4-one trifluoroacetate] | 7.32 |  |
| CC#CCn1c(N2CCNCC2)nc2c1c(=O)[nH]c(=O)n2C [Example 354, 7-(2-Butynyl)-3-methyl-8-(piperazin-1-yl)-3,7-dihydropurine-2,6-dione] |  | 285 |
| C#CCn1c(=O)c2c(nc(N3CCNCC3)n2CC#CC)n(C)c1=O [Example 357, 7-(2-Butynyl)-3-methyl-8-(piperazin-1-yl)-1-(2-propynyl)-3,7-dihydropurine-2,6-dione trifluoroacetate] |  | 323 |
| CC#CCn1c(=O)c2c(nc(N3CCNCC3)n2CC#CC)n(C)c1=O [Example 358, 1,7-bis(2-Butynyl)-3-methyl-8-(piperazin-1-yl)-3,7-dihydropurine-2,6-dione trifluoroacetate] |  | 357 |
| CC#CCn1c(N2CCNCC2)nc2c1c(=O)n(CC(=O)c1ccccc1)c(=O)n2C [Example 361, 7-(2-Butynyl)-3-methyl-1-[(2-oxo-2-phenyl)ethyl]-8-(piperazin-1-yl)-3,7-dihydropurine-2,6-dione trifluoroacetate] | 0.654 |  |
| CC#CCn1c(N2CCNCC2)nc2c1c(=O)n(CCc1ccccc1)c(=O)n2C [Example 367, 7-(2-Butynyl)-3-methyl-1-(2-phenylethyl)-8-(piperazin-1-yl)-3,7-dihydropurine-2,6-dione trifluoroacetate] |  | 4.56 |
| Cn1c(=O)n(CCc2ccccc2)c(=O)c2c1nc(N1CCNCC1)n2-c1ccccc1Cl [Example 377, 7-(2-Chlorophenyl)-3-methyl-1-(2-phenethyl)-8-(piperazin-1-yl)-3,7-dihydropurine-2,6-dione trifluoroacetate] | 8.77 |  |
| CC#CCn1c(N2CCNCC2)nc2c1c(=O)n(C)c(=O)n2CC1CCCO1 (centres unmarked) [Example 400, 7-(2-Butynyl)-3-(2-tetrahydrofuranyl)methyl-1-methyl-8-(piperazin-1-yl)-3,7-dihydropurine-2,6-dione trifluoroacetate] | 183 |  |
| CC#CCn1c(N2CCNCC2)nc2c1c(=O)n(C)c(=O)n2C(C(=O)OC)c1ccccc1 (centres unmarked) [Example 402, Methyl[7-(2-butynyl)-1-methyl-2,6-dioxo-8-(piperazin-1-yl)-1,2,6,7-tetrahydropurin-3-yl]phenylacetate trifluoroacetate] | 354 |  |
| CC#CCn1c(N2CCNCC2)nc2c1c(=O)n(C)c(=O)n2CC(=O)c1ccccc1 [Example 404, 7-(2-Butynyl)-3-(2-oxo-2-phenethyl)-1-methyl-8-(piperazin-1-yl)-3,7-dihydropurine-2,6-dione trifluoroacetate] | 276 |  |
| CC#CCn1c(N2CCNCC2)nc2c1c(=O)n(C)c(=O)n2CC(=O)C(C)(C)C [Example 409, 7-(2-Butynyl)-3-(3,3-dimethyl-2-oxobutyl)-1-methyl-8-(piperazin-1-yl)-3,7-dihydropurine-2,6-dione trifluoroacetate] | 222 |  |
| CC#CCn1c(N2CCNCC2)nc2c1c(=O)n(C)c(=O)n2C1CCNC1=O (centres unmarked) [Example 410, 7-(2-Butynyl)-1-methyl-3-(2-oxopyrrolidin-3-yl)-8-(piperazin-1-yl)-3,7-dihydropurine-2,6-dione hydrochloride] | 64.9 |  |
| CC#CCn1c(N2CCNCC2)nc2c1c(=O)n(CC(=O)c1ccccc1)c(=O)n2CCOCC [Example 413, 7-(2-Butynyl)-3-(2-ethoxyethyl)-1-(2-oxo-2-phenylethyl-8-(piperazin-1-yl)-3,7-dihydropurine-2,6-dione trifluoroacetate] | 1.95 |  |
| CC#CCn1c(N2CCNCC2)nc2c1c(=O)n(CC(=O)c1ccccc1)c(=O)n2CC(=O)OC [Example 415, Methyl[7-(2-butynyl)-2,6-dioxo-1-(2-oxo-2-phenylethyl)-8-(pipierazin-1-yl)-1,2,6,7-tetrahydropurin-3-yl]acetate trifluoroacetate] | 1.81 |  |
| CC#CCn1c(N2CCNCC2)nc2c1c(=O)n(CCc1ccccc1)c(=O)n2CC(=O)OCC [Example 416, Ethyl[7-(2-butynyl)-2,6-dioxo-1-(2-phenethyl)-8-(piperazin-1-yl)-1,2,6,7-tetrahydropurin-3-yl]acetate hydrochloride] |  | 4.02 |
| CC#CCn1c(N2CCNCC2)nc2c1c(=O)n(CCc1ccccc1)c(=O)n2CC(=O)N1CCCC1 [Example 418, 7-(2-Butynyl)-3-[2-oxo-2-(pyrrolidin-1-yl)ethyl]-1-(2-phenethyl)-8-(piperazin-1-yl)-3,7-dihydro purine-2,6-dione hydrochloride] |  | 1.14 |

Continued, values first:

| IC50 (read-out: IC50) [nM] | IC50 (IC50 (nM)) [nM] | Compound |
| --- | --- | --- |
| 211 |  | CC#CCn1c(N2CCNCC2)nc2nc(OC(C(=O)OC)c3ccccc3)n(C)c(=O)c21 (centres unmarked) [Example 4, trifluoroacetate] |
| 141 |  | CC#CCn1c(N2CCNCC2)nc2nc(OC(C)C(=O)OCC)n(C)c(=O)c21 (centres unmarked) [Example 9, Ethyl 2-[7-(2-butynyl)-1-methyl-6-oxo-8-(piperazin-1-yl)-6,7-dihydro-1H-purin-2-yloxy]propionate] |
| 183 |  | CC#CCn1c(N2CCNCC2)nc2nc(OCC)n(C)c(=O)c21 [Example 12, 7-(2-Butynyl)-2-ethoxy-1-methyl-8-(piperazin-1-yl)-1,7-dihydropurin-6-one] |
| 125 |  | CC#CCn1c(N2CCNCC2)nc2nc(OCC(=O)OCC)n(C)c(=O)c21 [Example 13, Ethyl[7-(2-butynyl)-1-methyl-6-oxo-8-(piperazin-1-yl)-6,7-dihydro-1H-purin-2-yloxy]acetate] |
| 272 |  | CC#CCn1c(N2CCNCC2)nc2nc(OC3(C(=O)OCC)CC3)n(C)c(=O)c21 [Example 16] |
| 27.4 |  | CC#CCn1c(N2CCNCC2)nc2nc(C(N)=O)n(C)c(=O)c21 [Example 83, 7-(2-Butynyl)-1-methyl-6-oxo-8-(piperazin-1-yl)-6,7-dihydro-1H-purine-2-carboxamide] |
| 147 |  | CC#CCn1c(N2CCNCC2)nc2c1c(=O)n(CC(=O)OC)c(=O)n2C [Example 355, Methyl[7-(2-butynyl)-3-methyl-2,6-dioxo-8-(piperazin-1-yl)-2,3,6,7-tetrahydropurin-1-yl]acetate trifluoroacetate] |
|  | 353 | CC#CCn1c(N2CCNCC2)nc2c1c(=O)n(CC#N)c(=O)n2C [Example 359, [7-(2-Butynyl)-3-methyl-2,6-dioxo-8-(piperazin-1-yl)-2,3,6,7-tetrahydropurin-1-yl]acetonitrile trifluoroacetate] |
|  | 197 | CC#CCn1c(N2CCNCC2)nc2c1c(=O)n(C)c(=O)n2CC [Example 396, 7-(2-Butynyl)-3-ethyl-1-methyl-8-(piperazin-1-yl)-3,7-dihydropurine-2,6-dione trifluoroacetate] |
| 237 |  | CC#CCn1c(N2CCNCC2)nc2c1c(=O)n(C)c(=O)n2CC(=O)OC [Example 398, Methyl[7-(2-butynyl)-1-methyl-2,6-dioxo-8-(piperazin-1-yl)-1,2,6,7-tetrahydropurin-3-yl]acetate trifluoroacetate] |
|  | 266 | CC#CCn1c(N2CCNCC2)nc2c1c(=O)n(C)c(=O)n2CCC [Example 403, 7-(2-Butynyl)-3-propyl-1-methyl-8-(piperazin-1-yl)-3,7-dihydropurine-2,6-dione trifluoroacetate] |
| 359 |  | CC#CCn1c(N2CCNCC2)nc2c1c(=O)n(C)c(=O)n2C(C)C(=O)OCC (centres unmarked) [Example 405, Ethyl 2-[7-(2-butynyl)-1-methyl-2,6-dioxo-8-(piperazin-1-yl)-1,2,6,7-tetrahydropurin-3-yl]propionate trifluoroacetate] |
| 275 |  | CC#CCn1c(N2CCNCC2)nc2c1c(=O)n(C)c(=O)n2CCOCC [Example 407, 7-(2-Butynyl)-3-(2-ethoxyethyl)-1-methyl-8-(piperazin-1-yl)-3,7-dihydropurine-2,6-dione trifluoroacetate] |
| 340 |  | CC#CCn1c(N2CCNCC2)nc2c1c(=O)n(C)c(=O)n2C(C)C [Example 408, 7-(2-Butynyl)-3-isopropyl-1-methyl-8-(piperazin-1-yl)-3,7-dihydropurine-2,6-dione trifluoroacetate] |
